Assay results as given in patent US20220389003A1, “4-SUBSTITUTED INDOLE AND INDAZOLE SULFONAMIDO DERIVATIVES AS PARG INHIBITORS” (IDEAYA BIOSCIENCES, INC., priority 2019, published 2022).

What was measured:
[1] = target: T1, PARG (Homo sapiens, UniProt Q86W56); test: Inhibition of PARG cellular assay (PAR foci in HeLa cells after MMS); format: cell-based; parameters: endogenous in cells; host or cells: HeLa; conditions: compound 1 h then MMS 1 h
Procedure, shortened: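 HeLa cells pretreated with compound for 1 h, then given MMS for a further 1 h, fixed and immunostained for PAR polymer. High-content imaging quantified nuclear PAR foci intensity (PAR Foci IC50) and percent cells with foci signal >1.3 (PAR % positive IC50).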

[2] = tested on: HCC1806-XRCC1 KD (knock down) cells; test: Cellular viability assay (Cell Titer-Glo); format: cell-based; conditions: 96 h, HCC1806-shXRCC1 cells, 4 days of incubation, read-out: PARGi cell viability
Procedure, shortened: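 XRCC1-knockdown HCC1806 cells seeded 24 h before dosing; 9-point 1:3 dilution from 30 μM top concentration, duplicates, 4-day incubation. Viability by CellTiter-Glo luminescence, normalized to DMSO wells as % of control; curves fit with 4-parameter inhibition model.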

[3] = target: T1, PARG; test: Inhibition of PARG enzymatic assay (TR-FRET enzymatic IC50 assay); format: biochemical; parameters: purchased Peak Proteins; conditions: hPARG 250 pM, biotinylated-PARylated PARP substrate 30 nM
Procedure, shortened: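 Compound preincubated 1 h with 250 pM His-tagged hPARG, then 30 nM biotinylated PARylated hPARP1 substrate added for 10 min; buffer 50 mM Tris-HCl pH 7.4, EDTA/EGTA, 1 mM DTT, 23° C. TR-FRET read after 1 h with anti-His ULight antibody and streptavidin-europium; inhibition scaled between DMSO and no-enzyme controls.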

T1 sequence (Q86W56 whole entry): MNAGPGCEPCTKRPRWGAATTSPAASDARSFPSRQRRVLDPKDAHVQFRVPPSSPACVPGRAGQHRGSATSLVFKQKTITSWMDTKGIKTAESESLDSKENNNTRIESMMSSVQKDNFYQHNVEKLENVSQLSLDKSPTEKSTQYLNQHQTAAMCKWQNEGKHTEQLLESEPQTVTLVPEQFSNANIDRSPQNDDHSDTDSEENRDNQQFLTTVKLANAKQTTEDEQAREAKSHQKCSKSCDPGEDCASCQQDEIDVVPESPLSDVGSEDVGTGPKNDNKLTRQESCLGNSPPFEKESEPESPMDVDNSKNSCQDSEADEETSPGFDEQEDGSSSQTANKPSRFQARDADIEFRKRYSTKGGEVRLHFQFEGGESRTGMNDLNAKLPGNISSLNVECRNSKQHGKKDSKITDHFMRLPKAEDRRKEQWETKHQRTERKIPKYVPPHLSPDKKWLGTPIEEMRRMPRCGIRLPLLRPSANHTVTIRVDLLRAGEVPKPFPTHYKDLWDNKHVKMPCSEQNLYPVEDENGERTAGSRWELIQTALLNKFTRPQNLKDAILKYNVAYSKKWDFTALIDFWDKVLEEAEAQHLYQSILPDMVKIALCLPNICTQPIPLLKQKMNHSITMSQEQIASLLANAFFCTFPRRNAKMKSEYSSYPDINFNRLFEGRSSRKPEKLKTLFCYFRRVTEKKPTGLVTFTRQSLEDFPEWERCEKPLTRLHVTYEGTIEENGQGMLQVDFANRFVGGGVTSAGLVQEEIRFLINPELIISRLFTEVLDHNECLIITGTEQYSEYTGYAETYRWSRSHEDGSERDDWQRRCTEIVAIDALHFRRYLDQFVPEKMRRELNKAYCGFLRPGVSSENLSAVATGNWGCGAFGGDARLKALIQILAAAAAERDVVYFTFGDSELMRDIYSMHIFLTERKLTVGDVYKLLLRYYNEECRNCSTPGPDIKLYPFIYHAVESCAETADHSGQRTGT

Row | IC50 [1] [µM] | IC50 [2] [µM] | IC50 [3] [µM] | SMILES
1 | ≤ 0.1 | < 1 | ≤ 0.1 | N#CC1(NS(=O)(=O)c2cc(N3CCN(C(=O)N4CCCC4)CC3)c3cnn(-c4nnc(C(F)F)s4)c3c2)CC1 [Example 57, 1-[({1-[5-(difluoromethyl)(1,3,4-thiadiazol-2-yl)]-4-[4-(pyrrolidinylcarbonyl)-piperazinyl]-1H-indazol-6-yl}sulfonyl)amino]cyclopropanecarbonitrile]
2 | 0.3 to 1 | 1 to 10 | ≤ 0.1 | N#CC1(NS(=O)(=O)c2cc(N3CCN4C(=O)CC[C@H]4C3)c3cnn(-c4nnc(C(F)F)s4)c3c2)CC1 [Example 59, 1-[({4-((1S)-7-oxo-3,6-diazabicyclo[4.3.0]non-3-yl)-1-[5-(difluoromethyl)(1,3,4-thiadiazol-2-yl)]-1H-indazol-6-yl}sulfonyl)amino]cyclopropanecarbonitrile]
3 | 0.1 to 0.3 | 1 to 10 | ≤ 0.1 | N#CC1(NS(=O)(=O)c2cc(N3CCN4C(=O)CC[C@@H]4C3)c3cnn(-c4nnc(C(F)F)s4)c3c2)CC1 [Example 60, 1-[({4-((1R)-7-oxo-3,6-diazabicyclo[4.3.0]non-3-yl)-1-[5-(difluoromethyl)(1,3,4-thiadiazol-2-yl)]-1H-indazol-6-yl}sulfonyl)amino]cyclopropanecarbonitrile]
4 | ≤ 0.1 | 1 to 10 | ≤ 0.1 | N#CC1(NS(=O)(=O)c2cc(N3CCN(C(=O)C4CCCC4)CC3)c3cnn(-c4nnc(C(F)F)s4)c3c2)CC1 [Example 66, 1-[({1-[5-(difluoromethyl)(1,3,4-thiadiazol-2-yl)]-4-[4-(cyclopentylcarbonyl)piperazinyl]-1H-indazol-6-yl}sulfonyl)amino]cyclopropanecarbonitrile]
5 | ≤ 0.1 | < 1 | ≤ 0.1 | CN(CC(F)F)C(=O)N1CCN(c2cc(S(=O)(=O)NC3(C#N)CC3)cc3c2cnn3-c2nnc(C(F)F)s2)CC1 [Example 67, N-(2,2-difluoroethyl)[4-(1-[5-(difluoromethyl)(1,3,4-thiadiazol-2-yl)]-6-{[(cyanocyclopropyl)amino]sulfonyl}(1H-indazol-4-yl))piperazinyl]-N-methylcarboxamide]
6 | 1 to 10 | 1 to 10 | ≤ 0.1 | CN1CC[C@H](C(=O)N2CCN(c3cc(S(=O)(=O)NC4(C#N)CC4)cc4c3cnn4-c3nnc(C(F)F)s3)CC2)C1 [Example 68, 1-{[(4-{4-[((3S)-1-methylpyrrolidin-3-yl)carbonyl]piperazinyl}-1-[5-(difluoromethyl)(1,3,4-thiadiazol-2-yl)]-1H-indazol-6-yl)sulfonyl]amino}cyclopropanecarbonitrile]
7 | ≤ 0.1 | < 1 | ≤ 0.1 | Cn1ccnc1N1CCN(c2cc(S(=O)(=O)NC3(C#N)CC3)cc3c2cnn3-c2nnc(C(F)F)s2)CC1 [Example 69, 1-[({1-[5-(difluoromethyl)(1,3,4-thiadiazol-2-yl)]-4-[4-(1-methylimidazol-2-yl)piperazinyl]-1H-indazol-6-yl}sulfonyl)amino]cyclopropanecarbonitrile]
8 | ≤ 0.1 | < 1 | ≤ 0.1 | CCCN(C)C(=O)N1CCN(c2cc(S(=O)(=O)NC3(C#N)CC3)cc3c2cnn3-c2nnc(C(F)F)s2)CC1 [Example 77, [4-(1-[5-(difluoromethyl)(1,3,4-thiadiazol-2-yl)]-6-{[(cyanocyclopropyl)amino]sulfonyl}(1H-indazol-4-yl))piperazinyl]-N-methyl-N-propylcarboxamide]
9 | 0.1 to 0.3 | 1 to 10 | 0.3 to 1 | Cc1cccnc1N1CCN(c2cc(S(=O)(=O)NC3(C#N)CC3)cc3c2cnn3-c2nnc(C(F)F)s2)CC1 [Example 79, 1-[({1-[5-(difluoromethyl)(1,3,4-thiadiazol-2-yl)]-4-[4-(3-methyl(2-pyridyl))-piperazinyl]-1H-indazol-6-yl}sulfonyl)amino]cyclopropanecarbonitrile]
10 | ≤ 0.1 | 1 to 10 | ≤ 0.1 | N#CC1(NS(=O)(=O)c2cc(N3CCN(C(=O)C4CC4)CC3)c3cnn(-c4nnc(C(F)F)s4)c3c2)CC1 [Example 80, 1-[({1-[5-(difluoromethyl)(1,3,4-thiadiazol-2-yl)]-4-[4-(cyclopropylcarbonyl)piperazinyl]-1H-indazol-6-yl}sulfonyl)amino]cyclopropanecarbonitrile]
11 | ≤ 0.1 | < 1 | ≤ 0.1 | CC(C)C(=O)N1CCN(c2cc(S(=O)(=O)NC3(C#N)CC3)cc3c2cnn3-c2nnc(C(F)F)s2)C[C@H]1C [Example 82, 1-[({4-[(3R)-3-methyl-4-(2-methylpropanoyl)piperazinyl]-1-[5-(difluoromethyl) (1,3,4-thiadiazol-2-yl)]-1H-indazol-6-yl}sulfonyl)amino]cyclopropanecarbonitrile]
12 | ≤ 0.1 | < 1 | ≤ 0.1 | C[C@H]1CN(c2cc(S(=O)(=O)NC3(C#N)CC3)cc3c2cnn3-c2nnc(C(F)F)s2)CCN1C(=O)N(C)C [Example 83, [(2S)-4-(1-[5-(difluoromethyl)(1,3,4-thiadiazol-2-yl)]-6-{[(cyanocyclopropyl)amino]sulfonyl}(1H-indazol-4-yl))-2-methylpiperazinyl]-N,N-dimethylcarboxamide]
13 | 0.1 to 0.3 | 1 to 10 | 0.3 to 1 | Cc1ccncc1N1CCN(c2cc(S(=O)(=O)NC3(C#N)CC3)cc3c2cnn3-c2nnc(C(F)F)s2)CC1 [Example 84, 1-[({1-[5-(difluoromethyl)(1,3,4-thiadiazol-2-yl)]-4-[4-(4-methyl(3-pyridyl))piperazinyl]-1H-indazol-6-yl}sulfonyl)amino]cyclopropanecarbonitrile]
14 | 1 to 10 | 1 to 10 | ≤ 0.1 | CN1CCC(C(=O)N2CCN(c3cc(S(=O)(=O)NC4(C#N)CC4)cc4c3cnn4-c3nnc(C(F)F)s3)CC2)CC1 [Example 85, 1-{[(1-[5-(difluoromethyl)(1,3,4-thiadiazol-2-yl)]-4-{4-[(1-methyl(4-piperidyl))-carbonyl]piperazinyl}-1H-indazol-6-yl)sulfonyl]amino}cyclopropanecarbonitrile]
15 | ≤ 0.1 | < 1 | ≤ 0.1 | CN(CC(F)(F)F)C(=O)N1CCN(c2cc(S(=O)(=O)NC3(C#N)CC3)cc3c2cnn3-c2nnc(C(F)F)s2)CC1 [Example 86, [4-(1-[5-(difluoromethyl)(1,3,4-thiadiazol-2-yl)]-6-{[(cyanocyclopropyl)amino]sulfonyl}(1H-indazol-4-yl))piperazinyl]-N-methyl-N-(2,2,2-trifluoroethyl)carboxamide]
16 | ≤ 0.1 | 1 to 10 | ≤ 0.1 | N#CC1(NS(=O)(=O)c2cc(N3CCN(C(=O)c4ccccn4)CC3)c3cnn(-c4nnc(C(F)F)s4)c3c2)CC1 [Example 87, 1-[({1-[5-(difluoromethyl)(1,3,4-thiadiazol-2-yl)]-4-[4-(2-pyridylcarbonyl)piperazinyl]-1H-indazol-6-yl}sulfonyl)amino]cyclopropanecarbonitrile]
17 | ≤ 0.1 | 1 to 10 | ≤ 0.1 | CC(C)C(=O)N1CCN(c2cc(S(=O)(=O)NC3(C#N)CC3)cc3c2cnn3-c2nnc(C(F)F)s2)C[C@@H]1C [Example 88, 1-[({4-[(3S)-3-methyl-4-(2-methylpropanoyl)piperazinyl]-1-[5-(difluoromethyl) (1,3,4-thiadiazol-2-yl)]-1H-indazol-6-yl}sulfonyl)amino]cyclopropanecarbonitrile]
18 | ≤ 0.1 | 1 to 10 | ≤ 0.1 | CC(C)C(=O)N1[C@H](C)CN(c2cc(S(=O)(=O)NC3(C#N)CC3)cc3c2cnn3-c2nnc(C(F)F)s2)C[C@@H]1C [Example 89, 1-[({4-[cis-3,5-dimethyl-4-(2-methylpropanoyl)piperazinyl]-1-[5-(difluoromethyl)-(1,3,4-thiadiazol-2-yl)]-1H-indazol-6-yl}sulfonyl)amino]cyclopropanecarbonitrile]
19 | 1 to 10 | 1 to 10 | ≤ 0.1 | CN1CCC[C@@H]1C(=O)N1CCN(c2cc(S(=O)(=O)NC3(C#N)CC3)cc3c2cnn3-c2nnc(C(F)F)s2)CC1 [Example 90, 1-{[(4-{4-[((2R)-1-methylpyrrolidin-2-yl)carbonyl]piperazinyl}-1-[5-(difluoromethyl)(1,3,4-thiadiazol-2-yl)]-1H-indazol-6-yl)sulfonyl]amino}cyclopropanecarbonitrile]
20 | 0.3 to 1 | 1 to 10 | 1 to 10 | N#CC1(NS(=O)(=O)c2cc(N3CCN(c4ccccn4)CC3)c3cnn(-c4nnc(C(F)F)s4)c3c2)CC1 [Example 93, 1-[({1-[5-(difluoromethyl)(1,3,4-thiadiazol-2-yl)]-4-(4-(2-pyridyl)piperazinyl)-1H-indazol-6-yl}sulfonyl)amino]cyclopropanecarbonitrile]

Row | SMILES | IC50 [1] [µM] | IC50 [2] [µM] | IC50 [3] [µM]
21 | CC(C)C(=O)N1C2CC1CN(c1cc(S(=O)(=O)NC3(C#N)CC3)cc3c1cnn3-c1nnc(C(F)F)s1)C2 [Example 91, 1-[({1-[5-(difluoromethyl)(1,3,4-thiadiazol-2-yl)]-4-[6-(2-methylpropanoyl)-3,6-diazabicyclo[3.1.1]hept-3-yl]-1H-indazol-6-yl}sulfonyl)amino]cyclopropanecarbonitrile] | 1 to 10 | 20 to 30 | 1 to 10
